Measurements published in US12446577B2 (priority 2018, dated 2025).

How the values were obtained:
[1] = tested on: Phytophthora infestans strain 1813E11; assay type: in vivo; details: 100 ppm
Plasmopara viticola = Plasmopara viticola grapevine leaf disc test; assay type: in vivo; details: copper hydroxide 2 g/L, preventive spray; 7 days after the artificial inoculation
Protocol: A stock solution of choline pelargonate (29.1% PLA and 40.4% Choline hydroxide, pH 8.82) was made by mixing 14.55 mL PLA with 15.25 mL distilled water and afterwards the addition of 20.2 mL of Choline hydroxide. The choline pelargonate stock solution (42.04%) was diluted in order to create a solution with a final concentration of choline pelargonate equal to 1 mL/L and 10 mL/L. The two choline pelargonate solutions, water as negative control and copper hydroxide (2 g/L) as positive control were used for this test. For each object 4 Petri plates were prepared and each plate contains 5 grapevine leaf discs (see Table 8 below).
Leaf discs preparation: leaf discs (diameter 19 mm) were prepared from grapevine cuttings (variety Pinot Nero Entav 115) using the young leaves. 5 leaf discs were placed in each Petri Plate on autoclaved paper (4 layers), the paper was previously wetted by adding 8.5 mL of sterile water in each plate. The leaf discs were placed on the paper with the abaxial side upward.
Test products application and pathogen inoculation: leaf discs were treated with the test products at 11.30 A.M (i.e. a preventive application) and the leaves were allowed to dry. The products were sprayed with a small hand sprayer; 5 sprays were applied on each plate. The same day at 16.30 a suspension of P. viticola spores at final concentration of 2*10^5 spore/mL was applied (5 hours after test product application) on the leaf discs. The inoculated plates were incubated overnight in the dark at 25° C. The following day, the leaf discs were dried under the laminar flow and then placed back at 25° C. The disease assessment was done 7 days after the artificial inoculation.

lettuce plants = experiment: Phytotoxicity on lettuce plants after spraying; assay type: in vivo; details: 2.5% pelargonic acid, sprayed until run-off, n = 6, scale 0 to 100%
Protocol: A neutralization reaction was made with pelargonic acid (>97%) and choline hydroxide (45%) based on the titration curve (FIG. 1). Based on the titration curve, a stock solution of choline pelargonate (29.1% PLA (>97%) and 40.4% Choline hydroxide (45%)) was made by mixing 14.55 mL pelargonic acid with 15.25 mL distilled water and afterwards the addition of 20.2 mL choline hydroxide. The choline pelargonate stock solution was diluted in distilled water to obtain a diluted choline pelargonate composition comprising about 2.5% pelargonic acid. The total concentration of choline pelargonate in the water spray solution was 37.08 g a.i./L (a.i.=active ingredient).
The next step was to assess the phytotoxicity of a composition comprising choline pelargonate on lettuce plants. As a control, plants were treated with water. The plants were also treated with a diluted pelargonic acid composition, including a diluted pelargonic acid solution based on the commercial product Beloukha (Belchim Crop Protection).
Lettuce plants were sprayed with a small hand sprayer until run-off with the respective compositions and incubated at 20° C. Each composition was tested with a setup consisting out of six plants. A visual assessment was made on lettuce plants after spraying. The effect of phytotoxicity (necrosis or discolouration) was scored by a scale from 0 to 100%, with 0% no phytotoxicity and 100% fully phytotoxicity on plants.

Sclerotinia minor = experiment: Mycelium growth inhibition on PDA (Example 7); assay type: cell-based; details: 3 days at 25° C; for Average mycelium diameter: n = 4
Protocol: (§1) Strains used for this trial were kept and refreshed on Potato Dextrose Agar (PDA) at 25° C.
(§2) To begin, a quantity of test product was directly added in a certain volume of PDA (about 20 mL/petri dish) (Table 11). Plugs of agar (diameter 10 mm) from one week-old cultures were placed at the centre of the PDA plates. Each object was performed in 4 repetitions. The petri dishes were then incubated at 25° C. in the dark. After 3 and 6 days of incubation, the diameter of the colonies was measured in 2 perpendicular directions. The percentage of inhibition was calculated for each product/concentration compare to the untreated.

Rhizoctonia solani = experiment: Mycelium growth inhibition on PDA (Example 7); assay type: cell-based; details: 3 days at 25° C; for Average mycelium diameter: n = 4
Protocol: as §1, §2

Pythium ultimum = experiment: Mycelium growth inhibition on PDA (Example 7); assay type: cell-based; details: 3 days at 25° C; for Average mycelium diameter: n = 4
Protocol: as §1, §2

Botrytis cinerea = experiment: Mycelium growth inhibition on PDA (Example 7); assay type: cell-based; details: 3 days at 25° C; for Average mycelium diameter: n = 4
Protocol: as §1, §2

Sclerotinia sclerotiorum = experiment: Mycelium growth inhibition on PDA (Example 7); assay type: cell-based; details: 3 days at 25° C; for Average mycelium diameter: n = 4
Protocol: as §1, §2

| SMILES | % efficacy compared to control (Abbott) (Sclerotinia minor; 0.042% a.i. in PDA) [%] | Average mycelium diameter (Sclerotinia minor; 0.042% a.i. in PDA) [mm] | % efficacy compared to control (Abbott) (Sclerotinia minor; 0.42% a.i. in PDA) [%] | Average mycelium diameter (Sclerotinia minor; 0.42% a.i. in PDA) [mm] | % efficacy compared to control (Abbott) (Rhizoctonia solani; 0.042% a.i. in PDA) [%] | Average mycelium diameter (Rhizoctonia solani; 0.042% a.i. in PDA) [mm] | % efficacy compared to control (Abbott) (Rhizoctonia solani; 0.42% a.i. in PDA) [%] | Average mycelium diameter (Rhizoctonia solani; 0.42% a.i. in PDA) [mm] | % efficacy compared to control (Abbott) (Pythium ultimum; 0.042% a.i. in PDA) [%] | Average mycelium diameter (Pythium ultimum; 0.042% a.i. in PDA) [mm] | % efficacy compared to control (Abbott) (Pythium ultimum; 0.42% a.i. in PDA) [%] | Average mycelium diameter (Pythium ultimum; 0.42% a.i. in PDA) [mm] | % efficacy compared to control (Abbott) (Botrytis cinerea; 0.042% a.i. in PDA) [%] | Average mycelium diameter (Botrytis cinerea; 0.042% a.i. in PDA) [mm] | % efficacy compared to control (Abbott) (Botrytis cinerea; 0.42% a.i. in PDA) [%] | Average mycelium diameter (Botrytis cinerea; 0.42% a.i. in PDA) [mm] | % efficacy compared to control (Abbott) (Sclerotinia sclerotiorum; 0.042% a.i. in PDA) [%] | Average mycelium diameter (Sclerotinia sclerotiorum; 0.042% a.i. in PDA) [mm] | % efficacy compared to control (Abbott) (Sclerotinia sclerotiorum; 0.42% a.i. in PDA) [%] | Average mycelium diameter (Sclerotinia sclerotiorum; 0.42% a.i. in PDA) [mm] | also measured |
| --- | --- | --- | --- | --- | --- | --- | --- | --- | --- | --- | --- | --- | --- | --- | --- | --- | --- | --- | --- | --- | --- |
| O=[N+]([O-])c1cc(C(F)(F)F)c(Cl)c([N+](=O)[O-])c1Nc1ncc(C(F)(F)F)cc1Cl [Fluazinam] |  |  |  |  |  |  |  |  |  |  |  |  |  |  |  |  |  |  |  |  | Disease severity (%) on potato leaf discs, Mean ([1]; mean of 5 leaf discs, six days after inoculation): 0%; efficacy ([1]; potato leaf discs): 100%; Disease severity (%) on potato leaf discs ([1]; single leaf discs a-e, six days after inoculation): 0% |
| [Cu+2].[OH-].[OH-] [copper, copper hydroxide, reference compound] |  |  |  |  |  |  |  |  |  |  |  |  |  |  |  |  |  |  |  |  | disease symptoms on the leaf discs (Plasmopara viticola): did not show any disease symptoms |
| CCCCCCCCC(=O)O [Pelargonic acid, pelargonic acid, reference compound] |  |  |  |  |  |  |  |  |  |  |  |  |  |  |  |  |  |  |  |  | Phytotoxicity (%) evaluation on lettuce plants (lettuce plants; 0 DAA): 0.00%; Phytotoxicity (%) evaluation on lettuce plants (lettuce plants; 1 DAA): 60.00%; Phytotoxicity (%) evaluation on lettuce plants (lettuce plants; 2 DAA): 60.83%; Phytotoxicity (%) evaluation on lettuce plants (lettuce plants; 7 DAA): 70.00% |
| CCCCCCCC(=O)[O-].C[N+](C)(C)CCO [TMAO, choline octanoate] | 96 | 2.5 ± 2.9 | 100 | 0.0 ± 0.0 | 64 | 18.9 ± 3.8 | 100 | 0.0 ± 0.0 | 100 | 0.0 ± 0.0 | 100 | 0.0 ± 0.0 | 72 | 12.1 ± 11.0 | 100 | 0.0 ± 0.0 | 98 | 1.3 ± 0.3 | 100 | 0.0 ± 0.0 |  |
| CCCCCCCCCC(=O)[O-].C[N+](C)(C)CCO [TMAD, choline decanoate] | 98 | 1.5 ± 1.8 | 99 | 0.5 ± 0.6 | 48 | 27.3 ± 6.9 | 99 | 0.4 ± 0.8 | 100 | 0.0 ± 0.0 | 100 | 0.0 ± 0.0 | 84 | 7.0 ± 10.7 | 95 | 2.0 ± 4.0 | 97 | 2.1 ± 1.7 | 100 | 0.0 ± 0.0 |  |
